# Assay results published in US8785608B2, “Crystalline heteroaromatic fluoroglycoside hydrates, pharmaceuticals comprising these compounds and their use” (Sanofi, priority 2009, dated 2014).
# Assays:
# Assay type in all cases: physicochemical
# [1] = Long term storage stability in glass vials (chemical stability); settings: for Puirity (area %) / Total increase (area %): +40° C.
# From the text: The following tables 2 and 3 show data for the storage stability of crystalline compound of formula I in comparison to amorphous material of formula II. Samples of the compounds of formula I and II were packed into glass vials. Chemical stability was monitored over a period up 28 days under different conditions as indicated at each table.
# [2] = Water vapour sorption (DVS), hygroscopicity; settings: 80% r.h. (25° C.)
# Experimental: The water sorption experiments were performed with a SPS11-10μ (Projekt Messtechnik). Open aluminium pans were used and the measurements were performed at 25° C. The measured data was evaluated via the software Excel (Microsoft).
# [3] = Humidity-resolved XRPD in humidity chamber (phase transitions); settings: 25° C.
# Experimental: The samples were subjected to a pre-defined humidity program lasting 48 hours in an SMS VGI-2000 chamber at a constant temperature of 25° C. XRPD patterns were collected continuously with a data collection time of between 6 and 11 min. (The amorphous sample was treated with the humidity-program reversed: first rising the humidity to 95%, then lowering it to 0% and rising to 95% again.).
# [4] = open glass vials, 75% relative humidity, 7 d
# [5] = open glass vials, 75% relative humidity, 14 d
# [6] = open glass vials, 75% relative humidity, 28 d
# [7] = open glass vials, 75% relative humidity, Initial
"Puirity (area %) ([1]; closed glass vials, 7 d)","Total increase (area %) ([1]; closed glass vials, 7 d)","Puirity (area %) ([1]; closed glass vials, 14 d)","Total increase (area %) ([1]; closed glass vials, 14 d)","Puirity (area %) ([1]; closed glass vials, 28 d)","Total increase (area %) ([1]; closed glass vials, 28 d)","Puirity (area %) ([1]; closed glass vials, Initial)","Puirity (area %) [1, 4] [area %]","Total increase (area %) [1, 4]","Puirity (area %) [1, 5] [area %]","Total increase (area %) [1, 5]","Puirity (area %) [1, 6] [area %]","Total increase (area %) [1, 6]","Puirity (area %) [1, 7] [area %]",chemical stability during storage ([1]; 40° C. under dry conditions (closed vials) and 75% r.h),hygroscopicity compared to the amorphous form [2],relative humidity at which starting phase B transformed to phase C ([3]; humidity lowered),relative humidity at which phase D transformed back into the starting phase ([3]; humidity raised),relative humidity at which intermediate phase D formed ([3]; humidity raised again),Compound
96.5,0.5,96.1,0.9,95.6,1.4,97.0,96.2,0.5 area %,95.9,1.1 area %,95.5,1.5 area %,97.0,–,–,–,–,–,"CC(C)c1[nH]nc(O[C@@H]2O[C@H](CO)[C@@H](F)[C@H](O)[C@H]2O)c1Cc1ccc(CCCC(=O)NC(CO)(CO)CO)cc1 [Amorphous sample, 4-{4-[3-((2S,3R,4R,5S,6R)-5-Fluoro-3,4-dihydroxy-6-hydroxymethyl-tetrahydro-pyran-2-yloxy)-5-isopropyl-1H-pyrazol-4-ylmethyl]-phenyl}-N-(2-hydroxy-1,1-bis-hydroxymethyl-ethyl)-butyramide, reference compound]"
97.2,0.3,97.1,0.4,97.0,0.5,97.5,97.3,≦0.2 area %,97.3,≦0.2 area %,97.3,≦0.2 area %,97.3,better chemical stability,less hygroscopic,about 2%,around 20 % rel. hum.,about 10%,CC(C)c1[nH]nc(O[C@@H]2O[C@H](CO)[C@@H](F)[C@H](O)[C@H]2O)c1Cc1ccc(CCCC(=O)NC(CO)(CO)CO)cc1 [Crystalline hydrate I]
